Test results from ChEMBL document CHEMBL2073877, “Functional characterization of the basolateral rat liver organic anion transporting polypeptide” (Hepatology, 1994).

Columns and labels:
[1] = target: T1, Solute carrier organic anion transporter family member 1A1 (Rattus norvegicus, UniProt P46720); experiment: TP_TRANSPORTER: inhibition of BSP uptake (BSP: 2 uM, DIDS: 100 uM) in Xenopus laevis oocytes; format: functional, cell-based, Oocyte; conditions: probe BSP
T1 sequence (P46720 whole entry): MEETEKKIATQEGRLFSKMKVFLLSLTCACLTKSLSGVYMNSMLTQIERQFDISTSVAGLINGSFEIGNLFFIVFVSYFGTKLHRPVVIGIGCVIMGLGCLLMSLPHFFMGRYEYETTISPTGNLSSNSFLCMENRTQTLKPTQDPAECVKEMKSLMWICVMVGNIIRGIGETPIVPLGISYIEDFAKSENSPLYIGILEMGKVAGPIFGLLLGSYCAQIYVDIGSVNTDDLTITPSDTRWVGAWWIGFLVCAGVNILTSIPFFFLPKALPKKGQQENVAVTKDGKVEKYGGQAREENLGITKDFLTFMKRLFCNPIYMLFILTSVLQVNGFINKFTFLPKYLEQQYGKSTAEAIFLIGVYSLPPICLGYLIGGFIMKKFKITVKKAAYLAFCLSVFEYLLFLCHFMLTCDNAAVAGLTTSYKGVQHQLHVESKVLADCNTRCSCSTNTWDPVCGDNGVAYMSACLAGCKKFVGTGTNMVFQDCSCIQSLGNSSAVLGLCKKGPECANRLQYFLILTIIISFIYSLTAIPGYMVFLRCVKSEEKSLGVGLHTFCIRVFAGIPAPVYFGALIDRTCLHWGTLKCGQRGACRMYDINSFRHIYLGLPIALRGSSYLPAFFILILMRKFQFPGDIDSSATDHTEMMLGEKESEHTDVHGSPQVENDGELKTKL

[2] = target: T1, Solute carrier organic anion transporter family member 1A1; experiment: TP_TRANSPORTER: inhibition of BSP uptake (BSP: 1 uM, Bilirubin: 10 uM) in Xenopus laevis oocytes; format: functional, cell-based, Oocyte; conditions: probe BSP
[3] = target: T1, Solute carrier organic anion transporter family member 1A1; experiment: TP_TRANSPORTER: inhibition of Taurocholate uptake (Taurochorate: 20 uM, CDCA: 200 uM) in Xenopus laevis oocytes; format: functional, cell-based; conditions: oocyte
[4] = target: T1, Solute carrier organic anion transporter family member 1A1; experiment: TP_TRANSPORTER: inhibition of BSP uptake (BSP: 2 uM, CDCA: 100 uM) in Xenopus laevis oocytes; format: functional, cell-based; conditions: oocyte
[5] = target: T1, Solute carrier organic anion transporter family member 1A1; experiment: TP_TRANSPORTER: inhibition of BSP uptake (BSP: 2 uM, DCA: 100 uM) in Xenopus laevis oocytes; format: functional, cell-based; conditions: oocyte
[6] = target: T1, Solute carrier organic anion transporter family member 1A1; experiment: TP_TRANSPORTER: inhibition of Taurocholate uptake (Taurochorate: 20 uM, DCA: 200 uM) in Xenopus laevis oocytes; format: functional, cell-based; conditions: oocyte
[7] = target: T1, Solute carrier organic anion transporter family member 1A1; experiment: TP_TRANSPORTER: inhibition of BSP uptake (BSP: 2 uM, GCDCA: 100 uM) in Xenopus laevis oocytes; format: functional, cell-based; conditions: oocyte
[8] = target: T1, Solute carrier organic anion transporter family member 1A1; experiment: TP_TRANSPORTER: inhibition of Taurocholate uptake (Taurochorate: 20 uM, GCDCA: 200 uM) in Xenopus laevis oocytes; format: functional, cell-based; conditions: oocyte
[9] = target: T1, Solute carrier organic anion transporter family member 1A1; experiment: TP_TRANSPORTER: inhibition of BSP uptake (BSP: 2 uM, GC: 100 uM) in Xenopus laevis oocytes; format: functional, cell-based; conditions: oocyte
[10] = target: T1, Solute carrier organic anion transporter family member 1A1; experiment: TP_TRANSPORTER: inhibition of Taurocholate uptake (Taurochorate: 20 uM, GC: 200 uM) in Xenopus laevis oocytes; format: functional, cell-based; conditions: oocyte
[11] = target: T1, Solute carrier organic anion transporter family member 1A1; experiment: TP_TRANSPORTER: inhibition of BSP uptake (BSP: 2 uM, GDCA: 100 uM) in Xenopus laevis oocytes; format: functional, cell-based; conditions: oocyte
[12] = target: T1, Solute carrier organic anion transporter family member 1A1; experiment: TP_TRANSPORTER: inhibition of Taurocholate uptake (Taurochorate: 20 uM, GDCA: 200 uM) in Xenopus laevis oocytes; format: functional, cell-based; conditions: oocyte
[13] = target: T1, Solute carrier organic anion transporter family member 1A1; experiment: TP_TRANSPORTER: inhibition of BSP uptake (BSP: 2 uM, ICG: 100 uM) in Xenopus laevis oocytes; format: functional, cell-based, Oocyte; conditions: probe BSP, read-out: Activity
[14] = target: T1, Solute carrier organic anion transporter family member 1A1; experiment: TP_TRANSPORTER: inhibition of BSP uptake (BSP: 2 uM, Probenecid: 1000 uM) in Xenopus laevis oocytes; format: functional, cell-based, Oocyte; conditions: probe BSP
[15] = target: T1, Solute carrier organic anion transporter family member 1A1; experiment: TP_TRANSPORTER: inhibition of Taurocholate uptake (Taurochorate: 20 uM, TCDC: 200 uM) in Xenopus laevis oocytes; format: functional, cell-based; conditions: oocyte
[16] = target: T1, Solute carrier organic anion transporter family member 1A1; experiment: TP_TRANSPORTER: inhibition of BSP uptake (BSP: 2 uM, TCDC: 100 uM) in Xenopus laevis oocytes; format: functional, cell-based; conditions: oocyte
[17] = target: T1, Solute carrier organic anion transporter family member 1A1; experiment: TP_TRANSPORTER: inhibition of Taurocholate uptake (Taurochorate: 20 uM, TDCA: 200 uM) in Xenopus laevis oocytes; format: functional, cell-based; conditions: oocyte
[18] = target: T1, Solute carrier organic anion transporter family member 1A1; experiment: TP_TRANSPORTER: inhibition of BSP uptake (BSP: 2 uM, TDCA: 100 uM) in Xenopus laevis oocytes; format: functional, cell-based; conditions: oocyte
[19] = target: T1, Solute carrier organic anion transporter family member 1A1; experiment: TP_TRANSPORTER: inhibition of BSP uptake (BSP: 2 uM, UDCA: 100 uM) in Xenopus laevis oocytes; format: functional, cell-based; conditions: oocyte
[20] = target: T1, Solute carrier organic anion transporter family member 1A1; experiment: TP_TRANSPORTER: inhibition of Taurocholate uptake (Taurochorate: 20 uM, UDCA: 200 uM) in Xenopus laevis oocytes; format: functional, cell-based; conditions: oocyte

`O=S(=O)(O)c1cc(N=C=S)ccc1/C=C/c1ccc(NC=S)cc1S(=O)(=O)O` showed an inhibition at 100 µM [1] of 52%.

`C=CC1=C(C)/C(=C/c2[nH]c(Cc3[nH]c(/C=C4\NC(=O)C(C)=C4C=C)c(C)c3CCC(=O)O)c(CCC(=O)O)c2C)NC1=O` [BILIRUBIN] was tested, and the inhibition at 10 µM [2] was 43%.

In the case of `C[C@H](CCC(=O)O)[C@H]1CC[C@H]2[C@@H]3[C@H](O)C[C@@H]4C[C@H](O)CC[C@]4(C)[C@H]3CC[C@]12C` [CHENODIOL], the Activity [3] is reported as “inhibitor [(at a rough estimate) 5 % of control]” and the Activity [4] is reported as “inhibitor [(at a rough estimate) 15 % of control]”.

`C[C@H](CCC(=O)O)[C@H]1CC[C@H]2[C@@H]3CC[C@@H]4C[C@H](O)CC[C@]4(C)[C@H]3C[C@H](O)[C@]12C` [DEOXYCHOLIC ACID] was tested, and the Activity [5] was “inhibitor [(at a rough estimate) 15 % of control]” and the Activity [6] was “inhibitor [(at a rough estimate) 5 % of control]”.

For `C[C@H](CCC(=O)NCC(=O)O)[C@H]1CC[C@H]2[C@@H]3[C@H](O)C[C@@H]4C[C@H](O)CC[C@]4(C)[C@H]3CC[C@]12C` [GLYCOCHENODEOXYCHOLATE], the Activity [7] was “inhibitor [(at a rough estimate) 10 % of control]” and the Activity [8] was “inhibitor [(at a rough estimate) 5 % of control]”.

With `C[C@H](CCC(=O)NCC(=O)O)[C@H]1CC[C@H]2[C@@H]3[C@H](O)C[C@@H]4C[C@H](O)CC[C@]4(C)[C@H]3C[C@H](O)[C@]12C` [GLYCOCHOLIC ACID] the Activity [9] was “inhibitor [(at a rough estimate) 45 % of control]” and the Activity [10] was “inhibitor [(at a rough estimate) 40 % of control]”.

With `C[C@H](CCC(=O)NCC(=O)O)[C@H]1CC[C@H]2[C@@H]3CC[C@@H]4C[C@H](O)CC[C@]4(C)[C@H]3C[C@H](O)[C@]12C` [GLYCODEOXYCHOLATE] the Activity [11] was “inhibitor [(at a rough estimate) 15 % of control]” and the Activity [12] was “inhibitor [(at a rough estimate) 10 % of control]”.

`CC1(C)C(/C=C/C=C/C=C/C=C2\N(CCCCS(=O)(=O)O)c3ccc4ccccc4c3C2(C)C)=[N+](CCCCS(=O)(=O)[O-])c2ccc3ccccc3c21` [INDOCYANINE GREEN] showed an inhibition at 100 µM [13] of 81%.

`CCCN(CCC)S(=O)(=O)c1ccc(C(=O)O)cc1` [PROBENECID] showed an inhibition at 1000 µM [14] of 74%.

`C[C@H](CCC(=O)NCCS(=O)(=O)O)[C@H]1CC[C@H]2[C@@H]3[C@H](O)C[C@@H]4C[C@H](O)CC[C@]4(C)[C@H]3CC[C@]12C` [TAUROCHENODEOXYCHOLATE] was tested, and the Activity [15] was “inhibitor [(at a rough estimate) 5 % of control]” and the Activity [16] was “inhibitor [(at a rough estimate) 5 % of control]”.

With `C[C@H](CCC(=O)NCCS(=O)(=O)O)[C@H]1CC[C@H]2[C@@H]3CC[C@@H]4C[C@H](O)CC[C@]4(C)[C@H]3C[C@H](O)[C@]12C` [TAURODEOXYCHOLIC ACID] the Activity [17] was “inhibitor [(at a rough estimate) 5 % of control]” and the Activity [18] was “inhibitor [(at a rough estimate) 10 % of control]”.

With `C[C@H](CCC(=O)O)[C@H]1CC[C@H]2[C@@H]3[C@@H](O)C[C@@H]4C[C@H](O)CC[C@]4(C)[C@H]3CC[C@]12C` [URSODIOL] the Activity [19] was “inhibitor [(at a rough estimate) 15 % of control]” and the Activity [20] was “inhibitor [(at a rough estimate) 10 % of control]”.
